Test results published in patent US10501479B2, “Benzenesulfonyl-asymmetric ureas and medical uses thereof” (HELSINN HEALTHCARE SA, priority 2016, dated 2019).
Like-named read-outs stand apart in the source and are kept apart here.

Assays:
[1] = Metabolic stability in mouse liver microsomes; assay type: in vitro ADME
Procedure, shortened: (§1)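 Test compounds were incubated with liver microsomes in 100 mM potassium phosphate buffer, pH 7.4, at 37 °C, with reactions started by an NADPH regenerating system after a 5 min preincubation. Samples taken at 0, 10, 30 and 90 min were quenched cold, centrifuged, and parent remaining was quantified by LC-MS/MS.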

[2] = molecular target: T1, GHSR-1a (HEK293/GHSR1a cell line) (Homo sapiens, UniProt Q92847); assay: Ghrelin agonist potency (EC50) with calcium FLIPR assay; assay type: cell-based
T1 construct: expressed in transfected cells; host or cells: HEK293/GHSR1a cell line
Procedure, shortened: (§2)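 Cells seeded 24 h before the run were loaded with calcium dye for 30-60 min at room temperature or 37° C. For agonism, compound was added at t=20 sec and the calcium signal followed for 2 minutes. For antagonism, compound plus ghrelin (10 nM) went on at t=20 sec, and IC50 reflected the drop in ghrelin response.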

[3] = molecular target: T2, recombinant human ghrelin receptor (HEK293/GRLN) (Homo sapiens, UniProt Q92847); assay: Ghrelin inverse agonist potency (EC50) with IP-1 (IP-One HTRF) assay; assay type: cell-based; details: IP-1 assay
T2 construct: expressed in transfected cells
Procedure, shortened: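 HEK293/GRLN cells were seeded 18-22 hours before the test, then exposed to compound in stimulation buffer for 1 hour at 37° C, 5% CO2. IP-1 was detected by IP-One HTRF (IP1-d2 plus Tb-cryptate, 1 hour RT), reading 620 and 665 nm; the inverse agonist EC50 was derived from this.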

[4] = molecular target: T1, GHSR-1a (HEK293/GHSR1a cell line); assay: Ghrelin antagonist potency (IC50) with calcium FLIPR assay, ghrelin 10 nM; assay type: cell-based
Procedure, shortened: as §2

[5] = Metabolic stability in human liver microsomes; assay type: in vitro ADME
Procedure, shortened: as §1

[6] = HEK293/GHSR1a, read-out: Activity EC50/EMax: EC50 (ghrelin agonist potency)
[7] = HEK293/GRLN, read-out: Activity EC50 (ghrelin inverse agonist potency)
[8] = HEK293/GHSR1a, ghrelin 10 nM, read-out: Activity IC50 (ghrelin antagonist potency)
[9] = ghrelin agonist potency, read-out: Activity EC50/EMax
[10] = ghrelin inverse agonist potency, read-out: Activity EC50
[11] = ghrelin antagonist potency, read-out: Activity IC50

T1 sequence (Q92847 whole entry): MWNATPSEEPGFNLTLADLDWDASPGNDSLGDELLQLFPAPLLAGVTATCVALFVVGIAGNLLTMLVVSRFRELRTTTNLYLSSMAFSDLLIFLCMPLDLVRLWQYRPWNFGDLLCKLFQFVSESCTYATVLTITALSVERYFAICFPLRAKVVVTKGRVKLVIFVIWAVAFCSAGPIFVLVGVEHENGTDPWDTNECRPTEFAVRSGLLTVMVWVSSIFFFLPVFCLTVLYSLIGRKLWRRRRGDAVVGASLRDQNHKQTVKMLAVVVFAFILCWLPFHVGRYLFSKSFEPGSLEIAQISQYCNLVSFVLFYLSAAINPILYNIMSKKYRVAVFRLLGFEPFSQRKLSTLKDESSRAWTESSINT
T2 sequence (Q92847 whole entry): as above

| SMILES | Metabolic Stability Study M = mouse [1] [µL/min/mg] | EC50 [2, 6] [µM] | EC50 [3, 7] [µM] | IC50 [4, 8] [µM] | Metabolic Stability Study H = human [5] [µL/min/mg] | EC50 [2, 9] [µM] | EC50 [3, 10] [µM] | IC50 [4, 11] [µM] |
| --- | --- | --- | --- | --- | --- | --- | --- | --- |
| C[C@@H](NC(=O)Nc1ccc(S(=O)(=O)Cc2cc(F)c3c(c2)CN(C)C3)cc1)c1ccccc1 [H1355, (R)-1-(4-(((7-fluoro-2-methylisoindolin-5-yl)methyl)sulfonyl)phenyl)-3-(1-phenylethyl)urea] | 304.3 | > 30 | 0.0129 | 0.041 | 153.5 | – | – | – |
| CC(NC(=O)Nc1ccc(S(=O)(=O)Cc2ccc3c(c2)CN(C)C3)c(O)c1)c1ccccc1.O=C(O)C(F)(F)F (stereo not drawn) [H1487, 1-(3-hydroxy-4-(((2-methylisoindolin-5-yl)methyl)sulfonyl)phenyl)-3-(1-phenylethyl)urea] | 16.9 | – | – | – | 26.1 | > 30 | 0.0057 | 0.0187 |
| CC(NC(=O)Nc1ccc(S(=O)(=O)Cc2ccc3c(c2)CNC3)c(C2CC2)c1)c1ccccc1 (stereo not drawn) [H1506, 1-(3-cyclopropyl-4-((isoindolin-5-ylmethyl)sulfonyl)phenyl)-3-(1-phenylethyl)urea] | 132.5 | – | – | – | 49.2 | > 30 | 0.0042 | 0.00228 |
| CC(NC(=O)Nc1ccc(S(=O)(=O)Nc2ccc3c(c2)CCN(C)C3)cc1)c1cccc(F)c1F (stereo not drawn) [H1346, 4-(3-(1-(2,3-difluorophenyl)ethyl)ureido)-N-(2-methyl-1,2,3,4-tetrahydroisoquinolin-6-yl)benzenesulfonamide] | 69.3 | > 30 | 0.00698 | 0.0191 | 72.9 | – | – | – |
| CC1c2ccccc2CCN1C(=O)Nc1ccc(S(=O)(=O)Cc2ccc3c(c2)CNC3)cc1 (stereo not drawn) [H1397, N-(4-((isoindolin-5-ylmethyl)sulfonyl)phenyl)-1-methyl-3,4-dihydroisoquinoline-2(1H)-carboxamide] | 32 | > 30 | 0.0678 | 1.1 | 35.1 | – | – | – |
| COc1cccc(C(C)NC(=O)Nc2ccc(S(=O)(=O)Cc3ccc4c(c3)CN(C)C4)cc2)c1 (stereo not drawn) [H1327, 1-(1-(3-methoxyphenyl)ethyl)-3-(4-(((2-methylisoindolin-5-yl)methyl)sulfonyl)phenyl)urea] | 144.8 | > 30 | 0.0055 | 0.0056 | 165.3 | – | – | – |
| COc1cc(S(=O)(=O)Cc2ccc3c(c2)CCN(C)C3)ccc1NC(=O)NC(C)c1ccccc1 (stereo not drawn) [H1387, 1-(2-methoxy-4-(((2-methyl-1,2,3,4-tetrahydroisoquinolin-6-yl)methyl)sulfonyl)phenyl)-3-(1-phenylethyl)urea] | 167.5 | > 30 | 0.0037 | 0.0074 | 86.7 | – | – | – |
| C[C@@H](NC(=O)Nc1ccc(S(=O)(=O)Nc2ccnc(N)n2)cc1)c1cccc(Cl)c1Cl [H1364, (R)-N-(2-aminopyrimidin-4-yl)-4-(3-(1-(2,3-dichlorophenyl)ethyl)ureido) benzenesulfonamide] | 36 | > 30 | 0.13 | 0.0296 | < 10 | – | – | – |
| COc1cc(S(=O)(=O)Cc2ccc3c(c2)CN(C)C3)ccc1NC(=O)NC(C)c1cccc2ccccc12 (stereo not drawn) [H1425, 1-(2-methoxy-4-(((2-methylisoindolin-5-yl)methyl)sulfonyl)phenyl)-3-(1-(naphthalen-1-yl)ethyl)urea] | 141.5 | > 30 | 0.0018 | 0.0081 | 310.0 | – | – | – |
| COc1cc(NC(=O)N(O)C(C)c2ccccc2F)ccc1S(=O)(=O)Cc1ccc2c(c1)CN(C)C2 (stereo not drawn) [H1511, 1-(1-(2-fluorophenyl)ethyl)-1-hydroxy-3-(3-methoxy-4-(((2-methylisoindolin-5-yl)methyl)sulfonyl)phenyl)urea] | 44.5 | – | – | – | 94.2 | > 30 | 0.0052 | 0.00604 |
| CC(NC(=O)Nc1ccc(S(=O)(=O)Cc2cc3c(s2)CN(C)CC3)cc1)c1cccc(Cl)c1Cl (stereo not drawn) [H1384, 1-(1-(2,3-dichlorophenyl)ethyl)-3-(4-(((6-methyl-4,5,6,7-tetrahydrothieno[2,3-c]pyridin-2-yl)methyl)sulfonyl)phenyl)urea] | 165.1 | > 30 | 0.0024 | 0.00595 | 95.1 | – | – | – |
| COc1cc(NC(=O)NC(C)c2ccccc2)ccc1S(=O)(=O)Cc1ccc2c(c1)CN(C)C2 (stereo not drawn) [H1462, 1-(3-methoxy-4-(((2-methylisoindolin-5-yl)methyl)sulfonyl)phenyl)-3-(1-phenylethyl)urea] | 15.8 | – | – | – | 76.1 | > 30 | 0.00624 | 0.0138 |
| CC(NC(=O)Nc1ccc(S(=O)(=O)Cc2ccc3c(c2)CCN(C)C3)cc1)c1ccccc1Cl (stereo not drawn) [H1344, 1-(1-(2-chlorophenyl)ethyl)-3-(4-(((2-methyl-1,2,3,4-tetrahydroisoquinolin-6-yl)methyl)sulfonyl)phenyl)urea] | 115.7 | > 30 | 0.0041 | 0.0044 | 53.5 | – | – | – |
| CC(NC(=O)Nc1ccc(S(=O)(=O)Cc2ccc(CN3CCCC3)cc2)cc1)c1ccccc1 (stereo not drawn) [H1276, 1-(1-phenylethyl)-3-(4-((4-(pyrrolidin-1-ylmethyl)benzyl)sulfonyl)phenyl)urea] | 247 | > 30 | 0.0234 | 0.076 | 109.7 | – | – | – |
| CC(NC(=O)Nc1ccc(S(=O)(=O)Cc2ccc3c(c2)CCN(C)C3)cc1)c1ccccc1F (stereo not drawn) [H1342, 1-(1-(2-fluorophenyl)ethyl)-3-(4-(((2-methyl-1,2,3,4-tetrahydroisoquinolin-6-yl)methyl)sulfonyl)phenyl)urea] | 118.4 | > 30 | 0.0079 | 0.0174 | 80.1 | – | – | – |
| COc1cc(S(=O)(=O)Cc2ccc3c(c2)CNC3)ccc1NC(=O)NC(C)c1c(F)cccc1F (stereo not drawn) [H1412, 1-(1-(2,6-difluorophenyl)ethyl)-3-(4-((isoindolin-5-ylmethyl)sulfonyl)-2-methoxyphenyl)urea] | 122.4 | > 30 | 0.0043 | 0.0157 | 22.5 | – | – | – |
| CC(NC(=O)Nc1ccc(S(=O)(=O)Cc2ccc3c(c2)CN(C)C3)cc1)c1cccc2ccccc12 (stereo not drawn) [H1302, 1-(4-(((2-methylisoindolin-5-yl)methyl)sulfonyl)phenyl)-3-(1-(naphthalen-1-yl)ethyl)urea] | 164.1 | > 30 | 0.0047 | 0.0057 | 201.7 | – | – | – |
| CC(NC(=O)Nc1ccc(S(=O)(=O)Cc2cnc3c(c2)CN(C)C3)cc1)c1ccccc1 (stereo not drawn) [H1323, 1-(4-(((6-methyl-6,7-dihydro-5H-pyrrolo[3,4-b]pyridin-3-yl)methyl)sulfonyl)phenyl)-3-(1-phenylethyl)urea] | 58.5 | > 30 | 0.102 | 0.243 | 84.1 | – | – | – |
